Test results published in patent US8859571B2, “Quinazoline compounds” (GlaxoSmithKline LLC, priority 2009, dated 2014).
Structures can show the parent of a compound that is named as a salt.

Target: T1, Full length human TNNI3K (hTNNI3K) (Homo sapiens, UniProt Q59H18)
T1 construct: His-MBP-TEV-Full length human TNNI3K (hTNNI3K); His (N); MBP (N); TEV cleavage site (N); made in house; host or cells: baculovirus system (printed 'Baculokinase system')
T1 sequence (Q59H18 1-835): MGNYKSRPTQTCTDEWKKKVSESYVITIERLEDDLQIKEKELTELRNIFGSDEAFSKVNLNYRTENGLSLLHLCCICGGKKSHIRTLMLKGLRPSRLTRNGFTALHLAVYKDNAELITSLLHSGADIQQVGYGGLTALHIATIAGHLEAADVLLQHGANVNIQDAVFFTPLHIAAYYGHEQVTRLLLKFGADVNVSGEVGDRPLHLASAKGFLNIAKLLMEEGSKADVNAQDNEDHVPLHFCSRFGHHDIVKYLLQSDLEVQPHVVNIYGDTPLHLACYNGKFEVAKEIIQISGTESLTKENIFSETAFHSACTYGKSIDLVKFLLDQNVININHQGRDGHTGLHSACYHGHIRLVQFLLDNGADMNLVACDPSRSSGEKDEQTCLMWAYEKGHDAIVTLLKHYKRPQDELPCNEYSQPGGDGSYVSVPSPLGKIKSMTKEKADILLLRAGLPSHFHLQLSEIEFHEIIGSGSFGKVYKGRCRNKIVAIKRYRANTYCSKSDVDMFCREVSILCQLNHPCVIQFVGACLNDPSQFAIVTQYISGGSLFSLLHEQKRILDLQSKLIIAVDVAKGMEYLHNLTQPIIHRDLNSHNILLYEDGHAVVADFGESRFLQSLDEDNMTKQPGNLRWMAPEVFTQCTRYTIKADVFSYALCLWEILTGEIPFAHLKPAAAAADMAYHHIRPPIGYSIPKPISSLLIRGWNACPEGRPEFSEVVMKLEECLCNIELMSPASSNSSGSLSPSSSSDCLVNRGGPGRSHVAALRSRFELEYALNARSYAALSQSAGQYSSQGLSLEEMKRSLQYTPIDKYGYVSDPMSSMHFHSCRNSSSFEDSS
Assay: Fluorescent polarization assay of compound inhibition on hTNNI3K ATP binding (Biological Assay Method I)
Settings: displacement of fluorescent ligand from hTNNI3K ATP binding pocket; mean of a minimum of 2 experiments; read-out: pXC50 (the source's name) (converted)
Description: Materials: His-MBP-TEV-Full length human TNNI3K (hTNNI3K) was expressed in Baculokinase system and purified from amylase affinity column followed by Superdex200. The fluorescent ligand 5-({[2-({[3-({4-[(5-hydroxy-2-methylphenyl)amino]-2-pyrimidinyl}amino)phenyl]carbonyl}amino)ethyl]amino}carbonyl)-2-(6-hydroxy-3-oxo-3H-xanthen-9-yl)benzoic acid was used. The preparation of this fluorescent ligand is disclosed in U.S. Provisional Patent Application No. 61/237,815 filed Aug. 28, 2009, the disclosure of which is incorporated by reference herein. The other buffer components, including MgCl2 (Catalog Number M1028), Bis-Tris (Catalog Number B7535), DTT (Catalog Number D9779) and Chaps (Catalog Number C3023) were purchased from Sigma-Aldrich.
Biological Assay Method I:
A fluorescent polarization assay was used to determine does response of compound inhibition on hTNNI3K ATP binding.
Solution 1: Ten (10) mL of a 5 nM 5-({[2-({[3-({4-[(5-hydroxy-2-methylphenyl)amino]-2-pyrimidinyl}amino)phenyl]carbonyl}amino)ethyl]amino}carbonyl)-2-(6-hydroxy-3-oxo-3H-xanthen-9-yl)benzoic acid solution (Solution 1) was prepared by mixing 5 μL of 1M DTT and 80 μL of 10% (w/v) Chaps and 5 μL of a 10 μM 5-({[2-({[3-({4-[(5-hydroxy-2-methylphenyl)amino]-2-pyrimidinyl}amino)phenyl]carbonyl}amino) ethyl]amino}carbonyl)-2-(6-hydroxy-3-oxo-3H-xanthen-9-yl)benzoic acid stock solution into 9910 μL buffer (20 mM Tris, 15 mM MgCl2, pH 7.5). (Stock solution: 10 μM solution of 5-({[2-({[3-({4-[(5-hydroxy-2-methylphenyl)amino]-2-pyrimidinyl}amino)phenyl]carbonyl}amino)ethyl]amino}carbonyl)-2-(6-hydroxy-3-oxo-3H-xanthen-9-yl)benzoic acid in 100% DMSO)
Solution 2 was formed by mixing 53.8 μL of 2.6 μM hTNNI3K with a 6946.2 μL aliquot of Solution 1 (the above 5-({[2-({[3-({4-[(5-hydroxy-2-methylphenyl)amino]-2-pyrimidinyl}amino)phenyl]carbonyl}amino)ethyl]amino}carbonyl)-2-(6-hydroxy-3-oxo-3H-xanthen-9-yl)benzoic acid solution) to make up a 7 mL of mixture of hTNNI3K and 5-({[2-({[3-({4-[(5-hydroxy-2-methylphenyl)amino]-2-pyrimidinyl}amino)phenyl]carbonyl}amino)ethyl]amino}carbonyl)-2-(6-hydroxy-3-oxo-3H-xanthen-9-yl)benzoic acid (Solution 2).
Fifty (50) nL of inhibitors in DMSO (or DMSO controls) were stamped into a 384-well low volume Greiner black plate, followed by addition of 5 μL of Solution 1 to column 18 and 5 μL Solution 2 to columns 1-17 and 19-24 of the plate. The plate was then spun at 500 rpm for 30 seconds and incubated at room temperature for 60 minutes. After that, the fluorescent polarization was measured on Analyst (ex/em: 485/530 nm, Dichroic: 505). For dose response experiments, normalized data were fit by ABASE/XC50 and pXC50=(log((b−y)/(y−a)))/d−log(x), where x is the compound concentration and y is the % activity at specified compound concentration, a is the minimum % activity, b is the maximum % activity, and d is the Hill slope.
The pXC50s are averaged to determine a mean value, for a minimum of 2 experiments.

Compound	IC50
CNS(=O)(=O)c1ccc(N(C)CC(F)(F)F)c(Nc2ncnc3cc(OC)cc(OC)c23)c1 [Example 36, 3-{[5,7-bis(methyloxy)-4-quinazolinyl]amino}-N-methyl-4-[methyl(2,2,2-trifluoroethyl)amino] benzenesulfonamide hydrochloride]	10 to 100 nM
CNS(=O)(=O)c1ccc(F)c(Nc2ncnc3cc(OC)cc(OC)c23)c1 [Example 38, 3-{[5,7-bis(methyloxy)-4-quinazolinyl]amino}-4-fluoro-N-methylbenzenesulfonamide hydrochloride]	10 to 100 nM
CNS(=O)(=O)c1ccc(N2CCOCC2)c(Nc2ncnc3cc(OC)cc(OC)c23)c1 [Example 40, 3-{[5,7-bis(methyloxy)-4-quinazolinyl]amino}-N-methyl-4-(4-morpholinyl) benzenesulfonamide hydrochloride]	10 to 100 nM
CNS(=O)(=O)c1ccc(OCC(F)(F)F)c(Nc2ncnc3cc(OC)c(OC(C)C)cc23)c1 [Example 44, N-methyl-3-{[6-[(1-methylethyl)oxy]-7-(methyloxy)-4-quinazolinyl]amino}-4-[(2,2,2-trifluoroethyl)oxy] benzenesulfonamide hydrochloride]	10 to 100 nM
CNS(=O)(=O)c1ccc(OCC(F)(F)F)c(Nc2ncnc3cc(OC)cc(OC(C)C)c23)c1 [Example 47, N-methyl-3-{[5-[(1-methylethyl)oxy]-7-(methyloxy)-4-quinazolinyl]amino}-4-[(2,2,2-trifluoroethyl)oxy] benzenesulfonamide]	10 to 100 nM
CNS(=O)(=O)c1ccc(OCC(F)(F)F)c(Nc2ncnc3cc(OC)c(OC)c(OC)c23)c1 [Example 48, N-methyl-4-[(2,2,2-trifluoroethyl)oxy]-3-{[5,6,7-tris(methyloxy)-4-quinazolinyl]amino}benzene sulfonamide hydrochloride]	1 to 10 nM
CNS(=O)(=O)c1cc(Nc2ncnc3cc(OC)cc(OC)c23)c(OCC(F)(F)F)cc1F [Example 50, 5-{[5,7-bis(methyloxy)-4-quinazolinyl]amino}-2-fluoro-N-methyl-4-[(2,2,2-trifluoroethyl)oxy] benzenesulfonamide trifluoroacetate]	10 to 100 nM
CNS(=O)(=O)c1cc(Nc2ncnc3cc(OC)cc(OC)c23)c(OC)cc1F [Example 51, 5-{[5,7-bis(methyloxy)-4-quinazolinyl]amino}-2-fluoro-N-methyl-4-(methyloxy) benzenesulfonamide trifluoroacetate]	10 to 100 nM
CNS(=O)(=O)c1ccc(SC)c(Nc2ncnc3cc(OC)cc(OC)c23)c1 [Example 53, 3-{[5,7-bis(methyloxy)-4-quinazolinyl]amino}-N-methyl-4-(methylthio) benzenesulfonamide hydrochloride]	10 to 100 nM
CNS(=O)(=O)c1ccc(OC(F)(F)F)c(Nc2ncnc3cc(OC)cc(OC)c23)c1 [Example 54, 3-{[5,7-bis(methyloxy)-4-quinazolinyl]amino}-N-methyl-4-[(trifluoromethyl)oxy] benzenesulfonamide hydrochloride]	1 to 10 nM

Further lines, results first:

IC50	Compound
1 to 10 nM	CNS(=O)(=O)c1ccc(N(C)CC(F)(F)F)c(Nc2ncnc3cc(OC)c(OC)cc23)c1 [Example 35, 3-{[6,7-bis(methyloxy)-4-quinazolinyl]amino}-N-methyl-4-[methyl(2,2,2-trifluoroethyl)amino] benzenesulfonamide trifluoroacetate]
1 to 10 nM	CNS(=O)(=O)c1ccc(OC)c(Nc2ncnc3cc(OC)cc(OC)c23)c1 [Example 37, 3-{[5,7-bis(methyloxy)-4-quinazolinyl]amino}-N-methyl-4-(methyloxy) benzenesulfonamide hydrochloride]
10 to 100 nM	CNS(=O)(=O)c1ccc(Cl)c(Nc2ncnc3cc(OC)cc(OC)c23)c1 [Example 39, 3-{[5,7-bis(methyloxy)-4-quinazolinyl]amino}-4-chloro-N-methylbenzenesulfonamide hydrochloride]
10 to 100 nM	CCOc1cc2c(Nc3cc(S(=O)(=O)NC)ccc3OCC(F)(F)F)ncnc2cc1OC [Example 42, 3-{[6-(ethyloxy)-7-(methyloxy)-4-quinazolinyl]amino}-N-methyl-4-[(2,2,2-trifluoroethyl)oxy] benzenesulfonamide hydrochloride]
10 to 100 nM	CNS(=O)(=O)c1ccc(OCC(F)(F)F)c(Nc2ncnc3cc(OCCCCl)ccc23)c1 [Example 45, 3-({7-[(3-chloropropyl)oxy]-4-quinazolinyl}amino)-N-methyl-4-[(2,2,2-trifluoroethyl)oxy] benzenesulfonamide]
1 to 10 nM	CCOc1cc(OC)cc2ncnc(Nc3cc(S(=O)(=O)NC)ccc3OCC(F)(F)F)c12 [Example 46, 3-{[5-(ethyloxy)-7-(methyloxy)-4-quinazolinyl]amino}-N-methyl-4-[(2,2,2-trifluoroethyl)oxy] benzenesulfonamide]
1 to 10 nM	CNS(=O)(=O)c1ccc(OC(C)C(F)(F)F)c(Nc2ncnc3cc(OC)cc(OC)c23)c1 (stereo not drawn) [Example 49, 3-{[5,7-bis(methyloxy)-4-quinazolinyl]amino}-N-methyl-4-[(2,2,2-trifluoro-1-methylethyl)oxy] benzenesulfonamide trifluoroacetate]
10 to 100 nM	CNS(=O)(=O)c1ccc(OC(F)(F)F)c(Nc2ncnc3cc(OC)c(OC)c(OC)c23)c1 [Example 55, N-methyl-4-[(trifluoromethyl)oxy]-3-{[5,6,7-tris(methyloxy)-4-quinazolinyl]amino}benzene sulfonamide trifluoroacetate]
1 to 10 nM	CNS(=O)(=O)c1cc(Nc2ncnc3cc(OC)cc(OC)c23)c(N(C)C)cc1F [Example 56, 5-{[5,7-bis(methyloxy)-4-quinazolinyl]amino}-4-(dimethylamino)-2-fluoro-N-methylbenzenesulfonamide hydrochloride]
10 to 100 nM	CNS(=O)(=O)c1cc(Nc2ncnc3cc(OC)c(OC)c(OC)c23)c(OCC(F)(F)F)cc1F [Example 58, 2-fluoro-N-methyl-4-[(2,2,2-trifluoroethyl)oxy]-5-{[5,6,7-tris(methyloxy)-4-quinazolinyl]amino}benzene sulfonamide trifluoroacetate]
10 to 100 nM	CNS(=O)(=O)c1ccc(Cl)c(Nc2ncnc3cc(OC)c(OC)c(OC)c23)c1 [Example 59, 4-chloro-N-methyl-3-{[5,6,7-tris(methyloxy)-4-quinazolinyl]amino}benzene sulfonamide trifluoroacetate]
